In patent US10513529B2, “1,2,4-triazolo-[3,4-b]-1,3,4-thiadiazole derivatives” (GALENICA S.A., priority 2016, dated 2019):
Where “and” joins values, the source holds several entries; their conditions need not be identical. Equal entries are not always repeated.

How the values were obtained:
[1] = test system: SKOV-3 human ovarian cancer cell line; experiment: MTT cytostatic-cytotoxic activity, SKOV-3; type: cell-based; conditions: for IC50: kills 50% of the cells
Experimental: (§1) SKOV-3 (SKOV-3) (ATCC HTB 77) and OVCAR-3 (ATCC® HTB-161™)
(§2) Human ovarian adenocarcinoma cells, which are grown easily in monolayer culture with epithelial-like morphology. SKOV-3 are resistant to tumor necrosis factor (TNF) and to other cytotoxic drugs such as cisplatin, and adriamycin, while OVCAR-3 are resistant to adriamycin, cisplatin and melphalan. These cell lines express androgens, estrogens and progesterone receptors. When SKOV-3 or OVCAR-3 cells are subcutaneously implanted in nude mice, SCID mice, a moderately differentiated tumor develops, and the resulting model resembles primary ovarian adenocarcinoma in humans.
(§3) All cancer cell lines are stored in a liquid nitrogen tank in 2.5 ml cryovials (Corning-Costar, Cambridge, Mass.). DMSO (dimethylsulfoxide) act as a cryoprotectant and is added to prevent the formation of ice crystals which may lyse the cells. The Cells were grown as monolayer cultures in T-75 flasks (Corning-Costar, Cambridge, Mass.) and maintained at 37° C. in 5% CO2 incubator & 100% relative humidity. The cultures medium used are McCoy's 5a Medium, supplemented with 10% fetal bovine serum (FBS, Gibco) and 1% antibiotics (100 IU/ml penicillin/100 µg/ml streptomycin), sterilized by filtration (Corning-Costar filter, diameter 0.2 μm, RPMI-1640 and 50% RPMI-1640 (Catalog No 30-2001) plus 50% Mammary Epithelial Growth Medium (MEGM), supplemented with 10% fetal bovine serum (FBS, Gibco) and 1% antibiotics (100 IU/ml penicillin/100 μg/ml streptomycin). The passage is performed every 3-4 to days as follows: Cells are washed with sterile PBS (Phosphate buffered saline): 8 g/l NaCl, 0,2 g/l KCl, 1,15 g/l Na2HPO4καl 0,2 g/l KH2PO4. pH:7,4), add 2-3 ml 0.05% trypsin (Gibco 1:250) and 0.02% EDTA to cover the monolayer and incubate the flask at 3TC for 5-10 minutes. Trypsin-EDTA, is used mainly to detach the cells from the flask and prepare a single cell suspension. Finally, the number of cells can be determined by direct counting using a Neubauer chamber and cell viability is determined by staining the cells with trypan blue.
(§4) In the experimental study the in vitro effect of the compound type (I) was evaluated against ovarian cancer cell lines UWB1.289, UWB1.289+BRCA1 Kai SKOV-3.The cells were plated in 96-well plate (MTP) at a density of 1×10^4cells/m1 per well and maintained for 72 h at 3TC in a 5% CO2 incubator and grown as monolayers. The selection of the initial number of cells was made according to the rate of proliferation of the cell line, in order the cells throughout the experiment are in an exponential (log) growth phase. After 24 hours, cells were treated with 1-100 μmol/l of the tested compounds for 48 h. Experiments were carried out using triplicate wells. The viability of cultured cells was estimated by an (3-(4,5-imethylthiazol-2-yl)-2,5-diphenyltetrazolium bromide (MTT) metabolic assay as described previously (Finlay G J, Wilson W R and Baguley B C: Comparison of in vitro activity of cytotoxic drugs towards human carcinoma and leukaemia cell lines. Eur J Cancer Clin Oncol 22: 655-662, 1986; Alley M C, Scudiero D A, Monks A, Hursey M L, Czerwinski M J, Fine D L, et al. Feasibility of drug screening with panels of human tumor cell lines using a microculture tetrazolium assay. Cancer Res 1988; 48:589-601). MTT (Sigma, St Louis, Mo., USA) was dissolved in PBS in a concentration of 5 mg/ml, filter sterilized, and stored at 4° C. MTT (50 μl of stock solution) was added to each culture and incubated for 3 h at 3TC to allow metabolization. Formazan crystals were solubilized by DMSO (100 μl). Absorbance of the converted dye was measured at a wavelength of 540nm on ELISA reader (BioTek, Winooski, Vt., USA).
(§5) GI50: The mean concentration that causes 50% inhibition of cell growth (Growth Inhibition 50%). The calculation of the value is based on the formula: (Tt72x)−(Ct24)/(Ct72)-(Ct24)×100=50
(§6) TGI: The mean concentration that causes 100% inhibition of cell growth (Total Growth Inhibition). […]

[2] = test system: UWB1.289 human ovarian cancer cell line (mutant BRCA1); experiment: MTT cytostatic-cytotoxic activity, UWB1.289; type: cell-based; conditions: for IC50: kills 50% of the cells
Experimental: Also, UWB1.289 cells have mutated the p53 tumor suppressor gene and positive Wilms' tumor protein (WT) expression, have no functional BRCA1 gene and are positive for the expression of cytokeratin 7 (CK-7), calretinin and Wilms' tumor protein (WT). Finally they are sensitive to ionizing radiation.
as §3, §4, §5
(§7) TGI: The mean concentration that causes 100% inhibition of cell growth (Total Growth Inhibition). The value is calculated according to the formula: (Tt72x)−(Ct24)/(Ct72)−(Ct24)×100=0
(§8) IC50: The mean concentration that kills 50% of the cells (Inhibition Concentration 50%). The value is calculated according to the formula: (Tt72x)−(Ct24)/(Ct24)×100=[…]

[3] = test system: OVCAR-3 human ovarian cancer cell line; experiment: MTT cytostatic-cytotoxic activity, OVCAR-3; type: cell-based; conditions: OVCAR-3, 48 h treatment; for IC50: kills 50% of the cells
Experimental: as §1, §2, §3, §4, §5, §6

[4] = test system: T-47D human breast cancer cell line; experiment: MTT cytostatic-cytotoxic activity, T-47D; type: cell-based; conditions: 48 h treatment; for IC50: kills 50% of the cells
[5] = test system: MCF-7 human breast cancer cell line; experiment: MTT cytostatic-cytotoxic activity, MCF-7; type: cell-based; conditions: for IC50: kills 50% of the cells
[6] = test system: PC-3 human hormone-resistant prostate cancer cell line; experiment: MTT cytostatic-cytotoxic activity, PC-3; type: cell-based; conditions: PC-3, 48 h treatment; for IC50: kills 50% of the cells
[7] = test system: A-549 human lung carcinoma cell line; experiment: MTT cytostatic-cytotoxic activity, A-549; type: cell-based; conditions: for IC50: kills 50% of the cells
[8] = test system: UWB1.289 + BRCA1 human ovarian cancer cell line; experiment: MTT cytostatic-cytotoxic activity, UWB1.289+BRCA1; type: cell-based; conditions: for IC50: kills 50% of the cells
Experimental: Human ovarian adenocarcinoma cells, derived from UBWB1,289, in which the presence of the BRCA1 gene has been restored. […] They are not susceptible to ionizing radiation and radioimmune chemical agents (e.g., alkylating agents). Also, UWB1.289 cells have mutated the p53 tumor suppressor gene, and are positive for the expression of cytokeratin 7 (CK-7), calretinin and Wilms' tumor protein (WT).
as §3, §4, §5, §7, §8

[9] = test system: MOLT-4 human acute T-leukemia cell line; experiment: MTT cytostatic-cytotoxic activity, MOLT-4; type: cell-based; conditions: MOLT-4, 48 h treatment; for IC50: kills 50% of the cells
C57BI/6 mice = experiment: in vivo; conditions: i.p., acute toxicity
Experimental: The acute toxicity of the compounds was assessed from lethality by testing different concentrations, starting at 100mg/kg. […] For intraperitoneal (i.p.) treatment, stock solutions of the tested compounds were prepared immediately before use. They were suspended in corn oil in the desired concentration following initial dissolution in 10% dimethylsulfoxide (DMSO). C57BI/6 male and female were used for toxicity studies. Mice were kept under conditions of constant temperature and humidity in sterile cages with water and food.

[10] = Homo sapiens, SK-OV-3, SKOV-3, 48 h treatment
[11] = Homo sapiens, A549, A-549, 48 h treatment
[12] = Homo sapiens, UWB1289, UWB1.289+BRCA1, 48 h treatment

COc1cc(Cc2nnc3sc(-c4cccc(Cl)c4)nn23)c(S(=O)(=O)N(C)C)cc1OC [TS22, 3-[2-(N,N-dimethylsulfamoyl)-4,5-dimethoxybenzyl]-6-(3-chlorophenyl)-1,2,4-triazolo[3,4-b]-1,3,4-thiazole]
GI50 [1, 10]: 60 µM
IC50 [1, 10]: > 100 µM
TGI ([1]; SKOV-3, 48 h treatment): 100 µM
IC50 ([2]; Homo sapiens, UWB1289, UWB1.289, 48 h treatment): > 100 µM
TGI ([2]; UWB1.289, 48 h treatment): >100 µM
GI50 ([3]; Homo sapiens): 90 µM
IC50 ([3]; Homo sapiens): > 100 µM
TGI [3]: >100 µM
GI50 [4]: 60 µM
TGI [4]: 97 µM and 100 µM
GI50 ([4]; Homo sapiens, T47D, 48 h): 48 µM
IC50 ([4]; Homo sapiens, T47D): > 100 µM
melting point: 237 to 239 °C
IC50 ([5]; Homo sapiens, MCF7, MCF-7, 48 h treatment): > 100 µM
TGI ([5]; MCF-7, 48 h treatment): 90 µM and >100 µM
GI50 ([6]; Homo sapiens): > 100 µM
IC50 ([6]; Homo sapiens): > 100 µM
TGI [6]: >100 µM
TGI ([7]; A-549, 48 h treatment): 95 µM
GI50 [7, 11]: 45 µM
IC50 [7, 11]: > 100 µM
GI50 [8, 12]: 16 µM
IC50 [8, 12]: > 100 µM
TGI ([8]; UWB1.289+BRCA1, 48 h treatment): >100 µM
GI50 ([9]; Homo sapiens): 72 µM
IC50 ([9]; Homo sapiens): > 100 µM
TGI [9]: >100 µM

COc1cc(Cc2nnc3sc(CC=Cc4ccccc4)nn23)c(S(=O)(=O)N(C)C)cc1OC [TS53, 3-[2-(N,N-dimethylsulfamoyl)-4,5-dimethoxybenzyl]-6-cinnamyl-1,2,4-triazolo[3,4-b]-1,3,4-thiazole]
GI50 ([1]; SKOV-3, 48 h treatment): 8 µM
TGI ([1]; SKOV-3, 48 h treatment): 16 µM
IC50 ([1]; SKOV-3, 48 h treatment): 32 µM
GI50 ([2]; UWB1.289, 48 h treatment): 12 µM
TGI ([2]; UWB1.289, 48 h treatment): 56 µM
IC50 ([2]; UWB1.289, 48 h treatment): > 100 µM
GI50 [3]: 5 µM
TGI [3]: 12 µM
IC50 [3]: 25 µM
LD10 (C57BI/6 mice): >500 mg/kg
LD50 (C57BI/6 mice): 375 mg/kg
GI50 [4]: 8 µM
TGI [4]: 37 µM
IC50 [4]: > 100 µM
GI50 ([5]; MCF-7, 48 h treatment): 15 µM
TGI ([5]; MCF-7, 48 h treatment): 45 µM
IC50 ([5]; MCF-7, 48 h treatment): > 100 µM
GI50 [6]: 12 µM
TGI [6]: 31 µM
IC50 [6]: 85 µM
GI50 ([7]; A-549, 48 h treatment): 9 µM
TGI ([7]; A-549, 48 h treatment): 24 µM
IC50 ([7]; A-549, 48 h treatment): 58 µM
GI50 ([8]; UWB1.289+BRCA1, 48 h treatment): 12 µM
TGI ([8]; UWB1.289+BRCA1, 48 h treatment): 28 µM
IC50 ([8]; UWB1.289+BRCA1, 48 h treatment): 42 µM
GI50 [9]: 4 µM
TGI [9]: 21 µM
IC50 [9]: 36 µM

COc1cc(Cc2nnc3sc(-c4ccccn4)nn23)c(S(=O)(=O)N(C)C)cc1OC [TS66]
GI50 ([1]; SKOV-3, 48 h treatment): 20 µM
TGI ([1]; SKOV-3, 48 h treatment): >100 µM
IC50 ([1]; SKOV-3, 48 h treatment): > 100 µM
GI50 ([2]; UWB1.289, 48 h treatment): > 100 µM
TGI ([2]; UWB1.289, 48 h treatment): >100 µM
IC50 ([2]; UWB1.289, 48 h treatment): > 100 µM
GI50 [3]: 24 µM
TGI [3]: >100 µM
IC50 [3]: > 100 µM
LD10 (C57BI/6 mice): >500 mg/kg
LD50 (C57BI/6 mice): >500 mg/kg
GI50 [4]: > 100 µM
TGI [4]: >100 µM
IC50 [4]: > 100 µM
GI50 ([5]; MCF-7, 48 h treatment): > 100 µM
TGI ([5]; MCF-7, 48 h treatment): >100 µM
IC50 ([5]; MCF-7, 48 h treatment): > 100 µM
GI50 [6]: > 100 µM
TGI [6]: >100 µM
IC50 [6]: > 100 µM
GI50 ([7]; A-549, 48 h treatment): > 100 µM
TGI ([7]; A-549, 48 h treatment): >100 µM
IC50 ([7]; A-549, 48 h treatment): > 100 µM
GI50 ([8]; UWB1.289+BRCA1, 48 h treatment): > 100 µM
TGI ([8]; UWB1.289+BRCA1, 48 h treatment): >100 µM
IC50 ([8]; UWB1.289+BRCA1, 48 h treatment): > 100 µM
GI50 [9]: 85 µM
TGI [9]: >100 µM
IC50 [9]: > 100 µM
